Source: US20250339569A1, “CARBONIC ANHYDRASE IX LIGANDS” (priority 2021, published 2025)
Read-outs that look alike come from different tables or passages of the source. Starred links: 1 amine or outer side, 2 acyl side, 3 side chain; linkers in the order of their positions; H or OH if unused. Positions of bridges follow the written chain, without caps; N, C: chain ends. Non-standard residues stand in square brackets, D forms with d. Residues, ends and D or L forms follow the SMILES beside them. ξ: configuration not given here. *: point of attachment. NH(CH2)3NH(O2Oc(DOTA)) = O=C(O)CN1CCN(CC(=O)O)CCN(CC(=O)NCCOCCOCC(=O)NCCCN*)CCN(CC(=O)O)CC1; Phe(3-NHCO(CH2)3SO2NH2) = N[C@@H](Cc1cccc(NC(=O)CCCS(N)(=O)=O)c1)C(=O)O; DOTA = O=C(O)CN1CCN(CC(=O)O)CCN(CC(=O)*)CCN(CC(=O)O)CC1; X19 = O=C([C@H](CS(=O)(=O)Cc1ccccc1)N[*:1])[*:2]; X7 = O=C([C@H](Cc1cccc(N[*:3])c1)N[*:1])[*:2]; Propanoyl(3-SO2NH2) = NS(=O)(=O)CCC(=O)*; ξTrp(1-Me) = Cn1cc(CC(N)C(=O)O)c2ccccc21; Phe(4-NH2) = Nc1ccc(C[C@H](N)C(=O)O)cc1; mXylylene = c1cc(C[*:1])cc(C[*:2])c1; X14 = O=C([C@H]1CCCN([*:1])C1)[*:2]; X36 = NS(=O)(=O)Cc1ccc(C(=O)*)cc1; X2 = O=C(CN1CCC(N[*:1])CC1)[*:2]; X1 = O=C(CN1CCN([*:1])CC1)[*:2]; Pip = O=C(O)[C@@H]1CCCCN1; X29 = c1cc2cn[nH]c2cc1CN*; Ac5c = NC1(C(=O)O)CCCC1; Dap = NC[C@H](N)C(=O)O; Sar = CNCC(=O)O

What was measured:
[1] = Plasma stability assay, mouse plasma; settings: mouse plasma, 37°C, 24 h
[2] = biological target: T1, human carbonic anhydrase IX (hCAIX-Fc) (Homo sapiens, UniProt Q16790); experiment: Surface plasmon resonance assay with hCAIX-Fc; format: binding; settings: 25° C.; for Kd: SPR, hCAIX-Fc captured, read-out: pKD category (activity) (converted); for t1/2 category (activity): SPR dissociation half-life, hCAIX-Fc
T1 construct: purchased SinoBliological (Sino Biological) 10107-H02H

[3] = biological target: T2, CAIX-expressing human HT-29 colorectal cancer cells (Homo sapiens, UniProt Q16790); experiment: FACS binding assay (IC50 determination, competition with tracer 3BP-2776 or 3BP-4149); settings: 4° C., 1 hour, read-out: pIC50 category (activity) (converted)
T2 construct: CAIX-expressing human HT-29 colorectal cancer cells; host or cells: HT-29 human colorectal cancer cells
How it was run: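 HT-29 cells in FACS buffer (PBS, 1% FCS) at 500.000 cells/ml were exposed to compounds competing with a labelled tracer, with biotinylated compounds detected by 1 μg/mL APC-streptavidin for 30 min on ice. APC/Cy5 median fluorescence was read by flow cytometry and IC50 derived by 4PL fit.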

[4] = FACS binding assay, HT-29 cells, competition with tracer 3BP-4149 (3 nM, Cy5-labeled)
[5] = FACS binding assay, HT-29 cells, competition with tracer 3BP-2776 (10 nM, biotin-labeled)
[6] = FACS competition on HT-29 cells, Tracer ID 3BP-2776 (10 nM, biotin-labeled)

SMILES | % intact compound remaining (incubation time) [1] [%] | Kd [2] [nM] | IC50 [3, 4] [nM] | t1/2 category (activity) [2] | IC50 [3, 5] [nM] | IC50 [3, 6] [nM]
CC(=O)N[C@H](C(=O)N[C@@H](CCCNC(=N)N)C(=O)N[C@H]1CSCc2cccc(c2)CSC[C@@H](C(N)=O)NC(=O)[C@H](CCC(=O)NCCCNC(=O)COCCOCCNC(=O)CN2CCN(CC(=O)O)CCN(CC(=O)O)CCN(CC(=O)O)CC2)NC(=O)[C@H](Cc2c[nH]c3ccccc23)NC(=O)[C@H]([C@@H](C)O)NC(=O)[C@H](CC(C)C)NC(=O)[C@H](Cc2c[nH]c3ccccc23)NC(=O)[C@H](CC(=O)O)NC(=O)[C@H]2CCCN2C(=O)[C@H](CCC(=O)O)NC1=O)C(C)C [3BP-3845] (Ac-VRCE[dP]DWLTWE(NH(CH2)3NH(O2Oc(DOTA)))C-NH2; linker 3-12 via mXylylene) | 76 |  |  |  |  | 
CC(C)C[C@@H]1NC(=O)[C@H](Cc2c[nH]c3ccccc23)NC(=O)[C@@H]2CCCCNC(=O)CC[C@H](NC1=O)C(=O)N[C@@H](Cc1c[nH]c3ccccc13)C(=O)N[C@@H](CO)C(=O)N[C@H](C(N)=O)CSCc1cccc(c1)CSC[C@H](NC(=O)[C@H](Cc1ccc(O)cc1)NC(=O)CN1CCN(CC(=O)O)CCN(CC(=O)O)CCN(CC(=O)O)CC1)C(=O)N[C@@H](CCC(=O)O)C(=O)N1CCC[C@@H]1C(=O)N2 [3BP-4053] ({DOTA}-YCE[dP]KWLEWSC-NH2; linker 2-11 via mXylylene; lactam 5-8) | 91 |  |  |  |  | 
CC(C)C[C@@H]1NC(=O)[C@H](Cc2cccc(NC(=O)CCCS(N)(=O)=O)c2)NC(=O)[C@H](CC(=O)O)NC(=O)[C@H]2CCCN2C(=O)[C@H](CCC(=O)O)NC(=O)[C@@H](NC(=O)[C@H](Cc2ccc(O)cc2)NC(=O)[C@H]2CCCN(C(=O)CN3CCN(CC(=O)O)CCN(CC(=O)O)CCN(CC(=O)O)CC3)C2)CSCc2cccc(c2)CSC[C@@H](C(N)=O)NC(=O)[C@H](CO)NC(=O)[C@H](Cc2c[nH]c3ccccc23)NC(=O)[C@H]([C@@H](C)O)NC1=O [3BP-4454] ({DOTA}-[X14]YCE[dP]D[Phe(3-NHCO(CH2)3SO2NH2)]LTWSC-NH2; linker 3-12 via mXylylene) |  | < 10 | 10 to 79.4 | A (t1/2>15.0 minutes) |  | 
CC(C)C[C@@H]1NC(=O)[C@H](Cc2cccc(NC(=O)c3cc(S(N)(=O)=O)c[nH]3)c2)NC(=O)[C@H](CC(=O)O)NC(=O)[C@H]2CCCN2C(=O)[C@H](CCC(=O)O)NC(=O)[C@@H](NC(=O)[C@H](CCC(N)=O)NC(=O)CN2CCN(C(=O)CN3CCN(CC(=O)O)CCN(CC(=O)O)CCN(CC(=O)O)CC3)CC2)CSCc2cccc(c2)CSC[C@@H](C(N)=O)NC(=O)[C@H](CO)NC(=O)[C@H](Cc2c[nH]c3ccccc23)NC(=O)[C@H]([C@@H](C)O)NC1=O [3BP-4789] |  | 10 to 79.4 |  | C (t1/2 between 2.1 and 5.0 minutes) | 10 to 79.4 | 
CC(C)C[C@@H]1NC(=O)[C@H](Cc2cccc(NC(=O)CCCS(N)(=O)=O)c2)NC(=O)[C@H](CC(=O)O)NC(=O)[C@H]2CCCN2C(=O)[C@H](CCC(=O)O)NC(=O)[C@@H](NC(=O)[C@H](Cc2ccc(O)cc2)NC(=O)[C@@H]2CCCCN2C(=O)CN2CCN(CC(=O)O)CCN(CC(=O)O)CCN(CC(=O)O)CC2)CSCc2cccc(c2)CSC[C@@H](C(N)=O)NC(=O)[C@H](CO)NC(=O)[C@H](Cc2c[nH]c3ccccc23)NC(=O)[C@H]([C@@H](C)O)NC1=O [3BP-4456] ({DOTA}-[Pip]YCE[dP]D[Phe(3-NHCO(CH2)3SO2NH2)]LTWSC-NH2; linker 3-12 via mXylylene) |  | < 10 | 10 to 79.4 | A (t1/2>15.0 minutes) |  | 
CC(C)C[C@@H]1NC(=O)[C@H](Cc2ccc(NC(=O)CCS(N)(=O)=O)cc2)NC(=O)[C@H](CC(=O)O)NC(=O)[C@H]2CCCN2C(=O)[C@H](CCC(=O)O)NC(=O)[C@@H]2CSCc3cccc(c3)CSC[C@@H](C(N)=O)NC(=O)[C@H](CNC(=O)CC[C@H](NC(=O)CN3CCN(C(=O)CN4CCN(CC(=O)O)CCN(CC(=O)O)CCN(CC(=O)O)CC4)CC3)C(=O)N2)NC(=O)[C@H](Cc2c[nH]c3ccccc23)NC(=O)[C@H]([C@@H](C)O)NC1=O [3BP-4504] ({DOTA}-[X1]ECE[dP]D[Phe(4-NH2)](Propanoyl(3-SO2NH2))LTW[Dap]C-NH2; lactam 2-11; linker 3-12 via mXylylene) |  | < 10 |  | A (t1/2>15.0 minutes) | < 10 | 
CC(=O)N[C@H](C(=O)N[C@@H](Cc1ccc(O)cc1)C(=O)N[C@H]1CSCc2cccc(c2)CSC[C@@H](C(N)=O)NC(=O)[C@H](C)NC(=O)[C@H](Cc2c[nH]c3ccccc23)NC(=O)[C@H]([C@@H](C)O)NC(=O)[C@H](CC(C)C)NC(=O)[C@H](Cc2c[nH]c3ccccc23)NC(=O)[C@H](CC(=O)O)NC(=O)CN(C)C(=O)[C@H](CCC(=O)O)NC1=O)C(C)C [3BP-3313] (Ac-VYCE[Sar]DWLTWAC-NH2; linker 3-12 via mXylylene) |  | < 10 |  | C (t1/2 between 2.1 and 5.0 minutes) |  | < 10

Now from value to compound:

% intact compound remaining (incubation time) [1] [%] | Kd [2] [nM] | IC50 [3, 4] [nM] | t1/2 category (activity) [2] | IC50 [3, 5] [nM] | IC50 [3, 6] [nM] | SMILES
>95 | < 10 |  |  |  |  | CC(C)C[C@@H]1NC(=O)[C@H](Cc2c[nH]c3ccccc23)NC(=O)[C@H](CC(=O)O)NC(=O)[C@H]2CCCN2C(=O)[C@H](CCC(=O)O)NC(=O)[C@@H](NC(=O)[C@H](Cc2ccc(O)cc2)NC(=O)CN2CCN(CC(=O)O)CCN(CC(=O)O)CCN(CC(=O)O)CC2)CSCc2cccc(c2)CSC[C@@H](C(N)=O)NC(=O)[C@H](CO)NC(=O)[C@H](Cc2c[nH]c3ccccc23)NC(=O)[C@H]([C@@H](C)O)NC1=O [3BP-3906] ({DOTA}-YCE[dP]DWLTWSC-NH2; linker 2-11 via mXylylene)
 | < 10 |  | A (t1/2>15.0 minutes) | < 10 |  | CC(C)C[C@@H]1NC(=O)[C@H](Cc2c[nH]c3ccccc23)NC(=O)[C@H](CS(=O)(=O)Cc2ccccc2)NC(=O)[C@H]2CCCN2C(=O)[C@H](CCC(=O)O)NC(=O)[C@@H](NC(=O)[C@H](Cc2ccc(O)cc2)NC(=O)[C@@H](NC(=O)CN2CCC(NC(=O)CN3CCN(CC(=O)O)CCN(CC(=O)O)CCN(CC(=O)O)CC3)CC2)C(C)C)CSCc2cccc(c2)CSC[C@@H](C(N)=O)NC(=O)[C@H](CO)NC(=O)[C@H](Cc2c[nH]c3ccccc23)NC(=O)[C@H]([C@@H](C)O)NC1=O [3BP-4123] ({DOTA}-[X2]VYCE[dP][X19]WLTWSC-NH2; linker 4-13 via mXylylene)
 | < 10 |  | B (t1/2 between 5.1 and 15.0 minutes) | < 10 |  | CC(C)C[C@@H]1NC(=O)C(Cc2cn(C)c3ccccc23)NC(=O)[C@H](CC(=O)O)NC(=O)[C@H]2CCCN2C(=O)[C@H](CCC(=O)O)NC(=O)[C@@H](NC(=O)[C@H](Cc2ccc(O)cc2)NC(=O)[C@@H](NC(=O)CN2CCC(NC(=O)CN3CCN(CC(=O)O)CCN(CC(=O)O)CCN(CC(=O)O)CC3)CC2)C(C)C)CSCc2cccc(c2)CSC[C@@H](C(N)=O)NC(=O)[C@H](CO)NC(=O)[C@H](Cc2c[nH]c3ccccc23)NC(=O)[C@H]([C@@H](C)O)NC1=O (stereo partly shown) [3BP-4144] ({DOTA}-[X2]VYCE[dP]D[ξTrp(1-Me)]LTWSC-NH2; linker 4-13 via mXylylene)
 | < 10 | 10 to 79.4 | A (t1/2>15.0 minutes) |  |  | CC(C)C[C@@H]1NC(=O)[C@H](Cc2c[nH]c3ccccc23)NC(=O)[C@H](CCC(=O)NCc2ccc3cn[nH]c3c2)NC(=O)[C@H]2CCCN2C(=O)[C@H](CCC(=O)O)NC(=O)[C@@H](NC(=O)[C@H](Cc2ccc(O)cc2)NC(=O)[C@@H](NC(=O)CN2CCC(NC(=O)CN3CCN(CC(=O)O)CCN(CC(=O)O)CCN(CC(=O)O)CC3)CC2)C(C)C)CSCc2cccc(c2)CSC[C@@H](C(N)=O)NC(=O)[C@H](CO)NC(=O)[C@H](Cc2c[nH]c3ccccc23)NC(=O)[C@H]([C@@H](C)O)NC1=O [3BP-4387] ({DOTA}-[X2]VYCE[dP]E(X29)WLTWSC-NH2; linker 4-13 via mXylylene)
 | < 10 |  | C (t1/2 between 2.1 and 5.0 minutes) |  | < 10 | CC(C)[C@H](NC(=O)CN1CCC(NC(=O)CN2CCN(CC(=O)O)CCN(CC(=O)O)CCN(CC(=O)O)CC2)CC1)C(=O)N[C@@H](Cc1ccc(O)cc1)C(=O)N[C@H]1CSCc2cccc(c2)CSC[C@@H](C(N)=O)NC(=O)[C@H](CO)NC(=O)[C@H](Cc2c[nH]c3ccccc23)NC(=O)[C@H]([C@@H](C)O)NC(=O)C2(CCCC2)NC(=O)[C@H](Cc2c[nH]c3ccccc23)NC(=O)[C@H](CC(=O)O)NC(=O)[C@H]2CCCN2C(=O)[C@H](CCC(=O)O)NC1=O [3BP-3587] ({DOTA}-[X2]VYCE[dP]DW[Ac5c]TWSC-NH2; linker 4-13 via mXylylene)
 | < 10 | < 10 | A (t1/2>15.0 minutes) |  |  | CC(C)C[C@@H]1NC(=O)[C@H](Cc2cccc(NC(=O)c3ccc(CS(N)(=O)=O)cc3)c2)NC(=O)[C@H](CC(=O)O)NC(=O)[C@H]2CCCN2C(=O)[C@H](CCC(=O)O)NC(=O)[C@@H](NC(=O)[C@H](Cc2ccc(O)cc2)NC(=O)[C@@H](NC(=O)CN2CCC(NC(=O)CN3CCN(CC(=O)O)CCN(CC(=O)O)CCN(CC(=O)O)CC3)CC2)C(C)C)CSCc2cccc(c2)CSC[C@@H](C(N)=O)NC(=O)[C@H](CO)NC(=O)[C@H](Cc2c[nH]c3ccccc23)NC(=O)[C@H]([C@@H](C)O)NC1=O [3BP-4406] ({DOTA}-[X2]VYCE[dP]D[X7](X36)LTWSC-NH2; linker 4-13 via mXylylene)
